Data as given in US4897390A, “Novel anti-obesity compounds and method of use” (priority 1987, dated 1990).

Columns and labels:
[1] = cited from earlier work; for deactivation and excretion from general circulation: once excreted from cells to the general circulation; for conjugation in blood stream: when excreted by individual cells to the blood stream
obesity [2] = conditions: known; cited from earlier work
[3] = system: thyroid stimulating hormone and thyroxine; conditions: cited from earlier work
[4] = system: glucose-6-phosphate dehydrogenase (G6PD); conditions: cited from earlier work
[5] = system: uterine weight of the immature mouse; test: Estrogenic effect: uterine weight of the immature mouse; type: in vivo, C57-WH mice
Description: Immature female C57-WH mice were maintained at 25° C. at 12 hours light/12 hours dark (lights on at 0800 h and off at 2000 h). Purina Lab Chow and water were available ad libitum. The control and each experimental group of animals consisted of six mice. Treatment began after an acclimation period of five days. Beginning at 27 days of age and continuing for three consecutive days, the mice were orally intubated with DHEA or β-MET suspended in sesame oil. The control mice received only sesame oil. Between 1400-1600 h on day 30, all animals were sacrificed by an overdose of ether. Uteri were removed, cleaned of adventitious tissue, and weighed to the nearest 0.5 mg.
All reported results are expressed as the mean plus or minus the standard error (mean±SE).

[6] = cited from earlier work
fatty acid synthetase [7] = conditions: prolonged treatment; mice with excessive levels of this enzyme; cited from earlier work
fatty acid synthetase [8] = conditions: cited from earlier work
[9] = DHEA treatment in mice; cited from earlier work
11β-hydroxylase = conditions: cited from earlier work
NADH oxidase = conditions: cited from earlier work
obesity [10] = test: Anti-obesity efficacy in various mammalian systems (general statement); type: in vivo
Salmonella typhimurium = conditions: alone and with liver homogenate fraction from rat treated with polychlorinated biphenyl
Description: β-MET was tested for mutagenicity by administration to a his^- auxotrophic mutant of Salmonella typhimurium.β-MET was administered alone and with a liver homogenate fraction from a rat that had been treated with polychlorinated biphenyl.

[11] = Cumulative food consumption of C57-WH mice treated with β-MET for 14 weeks; type: in vivo
Description: (§1) Forty C57-WH mice were maintained five per cage in a temperature-controlledroom (25° C.) with 12-h light/day (7:00 A.M. to 7:00 P.M.). All mice were at ten weeks of age when the experiment was begun.
(§2) The mice were divided into four groups: β-MET-treated female; control female; β-MET-treated male; and control male (for each group, n=10). All β-MET-treated animals received 0.07 mg (~4.6 mg/kg) of the β-MET administered as a suspension in sesame oil by PO intubation three times weekly. The control animals received only sesame oil. The mice were treated for a period of 14 weeks with access to Purina Laboratory chow and water ad libitum. Body weights were recorded weekly, and food consumption was determined by subtracting the food remaining from the food supplied at the beginning of each week.
(§3) Student's t-test was used in all statistical analyses of the data. Data are presented as means ±SD from the four groups of mice. Differences were considered significant at p<0.01.

[12] = Acute oral toxicity in mice (LD50); type: in vivo, C57-WH mice
Description: The LD50 of β-MET administered orally in mice could not be accurately determined. However, five male and five female C57-WH mice, each weighing approximately 15 g, received 200 mg of β-MET, suspended in sesame oil, by p.o. intubation.

[13] = Body weight of C57-WH mice treated with β-MET for 14 weeks; type: in vivo; conditions: for mean weight after 14 weeks: 0.07 mg (~4.6 mg/kg) PO three times weekly, n=10; for significance of difference in mean weights versus control: significant at p<0.01
Description: as §1, §2, §3

[14] = Short-term (thirty day) treatment with large doses in mice; type: in vivo, C57-WH mice
Description: Five male and five female C57-WH mice (age: ~11 weeks, weight: ~15 g each) each received 200 mg/kg of β-MET, suspended in sesame oil, by p.o. intubation every second day for a period of thirty days. Another group of ten matched controls received only the sesame oil. […] Abnormalities such as hypertrophic lymph nodes, diarrhea, bloody stools, or loss of hair luster were not seen.

[15] = 200 mg/kg p.o. every second day for thirty days

Structure (SMILES): C[C@]12CC[C@H](O)C[C@H]1CC[C@@H]1[C@@H]2CC[C@]2(C)C(=O)CC[C@@H]12 [β-HET, 5-β-androstan-3-β-ol-17-one]
- deactivation and excretion from general circulation [1]: rapidly deactivated and excreted from the body
- conjugation in blood stream [1]: conjugated to glucuronic acid at the 3-hydroxy position
- anti-obesity effects attributed to DHEA (obesity [2]): known to accomplish the anti-obesity effects attributed to DHEA

Structure (SMILES): C[C@]12CC[C@H](O)CC1=CC[C@@H]1[C@@H]2CC[C@]2(C)C(=O)CC[C@@H]12 [DHEA, dehydroepiandrosterone]
- thyroid follicle epithelium ([3]; rat studies): hypertrophy of the thyroid follicle epithelium
- levels of thyroid stimulating hormone and thyroxine in the blood ([3]; rat, in vivo): known to increase levels of thyroid stimulating hormone and thyroxine in the blood
- inhibition of mammalian G6PD [4]: known to inhibit mammalian glucose-6-phosphate dehydrogenase
- Uterine weight ([5]; daily dose 400.0 mg/kg, oral, three consecutive days from day 27, mean±SE, control 58.0 ± 3): 257.0 ± 5 mg/100 g body weight
- toxicity in humans ([6]; in vivo): relatively low toxicity in humans
- estrogenic and androgenic effects ([6]; long-term administration, humans): Estrogenic and androgenic effects
- liver and adipose tissue fatty acid synthetase activity (fatty acid synthetase [7]): decrease liver and adipose tissue fatty acid synthetase activity
- inhibition of fatty acid synthetase (fatty acid synthetase [8]): known to directly inhibit fatty acid synthetase
- lipogenesis and fat cell size [9]: decreases in lipogenesis and fat cell size
- inhibition of 11β-hydroxylase (11β-hydroxylase): known to inhibit 11β-hydroxylase
- inhibition of NADH oxidase (NADH oxidase): known inhibitor of NADH oxidase

Structure (SMILES): C[C@]12CC[C@@H](O)C[C@H]1CC[C@@H]1[C@@H]2CC[C@]2(C)C(=O)CC[C@@H]12 [α-HET, 3α-hydroxyetiocholanone]
- deactivation and excretion from general circulation [1]: rapidly deactivated and excreted from the body
- conjugation in blood stream [1]: conjugated to glucuronic acid at the 3-hydroxy position
- anti-obesity effects attributed to DHEA (obesity [2]): known to accomplish the anti-obesity effects attributed to DHEA

Structure (SMILES): C[C@H]1CC[C@@]2(C)[C@H](CC[C@@H]3[C@@H]2CC[C@]2(C)C(=O)CC[C@@H]32)C1 [β-MET, 3-β-methyl-5-β-androstan-17-one]
- inhibition of obesity in comparison to 3β-HET (obesity [10]; comparison to 3β-HET): much more effective inhibitor of obesity
- antiobesity efficacy and safety (obesity [10]; various mammalian systems): safe and effective antiobesity agent
- estrogenic activity ([5]; mouse, in vivo): does not exhibit similar estrogenic activity
- mutagenicity (Salmonella typhimurium): not mutagenic
- food intake versus control ([11]; female, 14 weeks (FIG. 6)): not significantly different
- effect on appetite ([11]; male and female (FIG. 6)): without suppressing appetite
- cumulative food consumption versus control ([11]; male, 14 weeks (FIG. 6)): not significantly different
- survival ([12]; 200 mg p.o. per ~15 g mouse, five male and five female): All of the animals survived
- LD50 ([12]; mouse, in vivo, po, mice, p.o. in sesame oil): > 10000 mg/kg
- mean weight after 14 weeks ([13]; female, control female 26.1 g): 21.8 g
- significance of difference in mean weights versus control ([13]; female): a significant difference in mean weights was observed after the third week of treatment
- inhibition of weight gain ([13]; male and female C57-WH mice, 14 weeks (FIG. 5)): significantly inhibits weight gain
- mean weight after 14 weeks ([13]; male, control male 24.8 g): 20.7 g
- significance of difference in mean weights versus control ([13]; male): statistically significant after the sixth week of treatment
- behavioral or external physical differences from controls [14, 15]: no obvious behavioral or external physical differences from controls
- hypertrophic lymph nodes, diarrhea, bloody stools, or loss of hair luster [14, 15]: not seen
- postmortem studies [14, 15]: no gross abnormalities or visible pathological changes
- survival and health [14, 15]: all experimental mice were alive and apparently healthy
- harm by short-term treatment with relatively large doses ([14]; approximately 20x the effective anti-obesity dose in mice): appears not to be harmful to mice
- examination of visible membranes ([14]; mouse, in vivo, po, 200 mg/kg): no abnormal findings
